Test results as given in paper PMC8624133, “10th Trends in Medical Mycology Held on 8 to 11 October 2021, Aberdeen, Scotland, Organized by the European Confederation of Medical Mycology (ECMM)” (Journal of Fungi, 2021).
Converted amounts (≈) assume the structure as drawn. Read-outs that look alike come from different tables or passages of the source.

Columns and labels:
[1] = test system: A. fumigatus complex; details: share of isolates, n = 59, EUCAST clinical breakpoints
[2] = test system: C. auris; assay: CLSI M27-A3 broth microdilution; type: cell-based, Candida auris; details: for MIC: Candidozyma auris, read-out: GM MIC
[3] = Triazole drug levels in ABPA patients with asthma; type: in vivo, human; details: 452 patients, Oct 2009 to March 2021
From the text: Materials & Methods: This was a retrospective single-centre cohort study evaluating longitudinal outcomes in non-cystic fibrosis (CF) ABPA patients with underlying chronic lung disease (asthma), and description of treatment approaches. Statistical Analysis System (SAS) programming was used for data integration from multiple hospital electronic systems, for patient identification and data analysis. Criteria for inclusion were patients with a background of asthma, serum Total IgE >1000 IU/mL and a positive Aspergillus IgE, with or without a positive culture for A. fumigatus from a respiratory sample. Data collected included demographics, lung function severity, disease activity serological markers (Aspergillus IgE, Aspergillus IgG, Total IgE) and triazole levels. In this study the impact of fungal therapy on disease outcomes was assessed.

[4] = test system: A. fumigatus clinical isolates; assay: Susceptibility of clinical isolates from CF patients; details: all 10 clinical isolates
[5] = test system: Parathyridaria percutanea; assay: In vitro antifungal susceptibility; type: cell-based
[6] = test system: A. niger complex; assay: EUCAST E.Def 9.3.2 susceptibility, CPA isolates; type: cell-based, Aspergillus niger complex; details: n = 7, ECOFFs
[7] = test system: C. auris clinical strains; assay: organism not typed; type: cell-based, Candida auris; details: for MIC: range, 78 strains from patients with COVID-19
[8] = test system: C. auris Isolate B and Isolate C; assay: microbe, parasite or virus in culture; type: cell-based, Candida auris; details: for reduction in MIC: Isolate C with ERG11 WT in place of K143R
[9] = test system: A. fumigatus isolates; assay: AFST by EUCAST method and direct inoculation of spore suspensions
Method: Material/methods: We used two methods for AFST: In the standard “EUCAST method”, AFST was performed using spores from a maturated colony. In the “direct inoculation method”, AFST was performed using the spore suspensions that were either stored or sent from other laboratories directly without a subculturing phase. Three groups of isolates were analyzed. […] Spore suspensions were prepared and AFST was performed daily after storing the isolates for 4 days at room temperature, and after 4 days for spore suspensions stored at 2–4 °C and at 28 °C. All measurements were performed in triplicate. Group II, retrospective analysis: 50 isolates that were sent to our laboratory as spore suspensions were tested using the direct inoculation method and stored at −70 °C in glycerol broth. The stored isolates were revived and AFST was repeated using the EUCAST method. Group III: prospective analysis: 30 isolates that were sent to our laboratory as spore suspensions were tested using the direct inoculation method and simultaneously using the EUCAST methods without storage at −70 °C. MICs based on the EUCAST and direct inoculation methods were compared.

[10] = test system: Exophiala phaeomuriformis; assay: MIC, CLSI M27-A3; type: cell-based; details: read-out: MIC values
Outline: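 Isolate recovered from aviation kerosene by 0.22 μm membrane filtration, grown on potato dextrose agar at 30 °C for seven days and identified by ITS sequencing. Susceptibility to clinical antifungals tested per CLSI M27-A3.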

[11] = test system: azole-resistant A. fumigatus SS clinical strains; assay: EUCAST E.DEF 9.3.2; type: cell-based; details: Aspergillus fumigatus
[12] = test system: nine strains of Candida spp.; assay: CLSI M27-A3 broth microdilution; type: cell-based; details: nine strains; for MIC: Candida, read-out: GM MIC
[13] = test system: F. verticillioides; assay: Etest susceptibility; type: cell-based, Fusarium verticillioides
[14] = test system: A. fumigatus strains; assay: EUCAST E.DEF 9.3.2 broth microdilution; type: cell-based, Aspergillus fumigatus; parameters: MIC Range: unit not given beside the values; MIC50 / MIC90: unit not given here
Method: Methods: The research was conducted on 29 A. fumigatus strains. Minimum inhibitory concentrations (MIC) were detected by broth microdilution method (BM) following EUCAST definitive document E.DEF 9.3.2 and E-test in accordance with manufacturer instructions.

[15] = test system: C. parapsilosis; type: cell-based, Candida parapsilosis
[16] = test system: C. glabrata; type: cell-based, Candida glabrata
[17] = test system: C. parapsilosis; assay: Candidemia Netherlands, MIC distributions against EUCAST ECOFF; type: cell-based, Candida parapsilosis
[18] = test system: C. albicans; type: cell-based, Candida albicans
[19] = test system: McLDM-F1-CPR; assay: microbe, parasite or virus in culture; type: cell-based, Saccharomyces cerevisiae AD2Δgal; details: Saccharomyces cerevisiae, read-out: mean MIC
[20] = test system: C. tropicalis; type: cell-based, Candida tropicalis
[21] = test system: C. albicans; assay: Candidemia Netherlands, MIC distributions against EUCAST ECOFF; type: cell-based, Candida albicans
[22] = test system: Trichosporon isolates; assay: CLSI broth microdilution; type: cell-based, Trichosporon spp.
[23] = test system: Other species of Candida; type: cell-based, Candida spp.
[24] = test system: Candida catenulata; assay: CLSI M44 agar diffusion; type: cell-based
[25] = test system: McLDM-F5-CPR; assay: microbe, parasite or virus in culture; type: cell-based, Saccharomyces cerevisiae AD2Δgal; details: Saccharomyces cerevisiae, read-out: mean MIC
[26] = test system: biofilm of filamentous fungi; assay: Biofilm XTT-menadione assay; type: cell-based
Method: Materials & Methods: Eight strains are studied: Fusarium solani, Fusarium dimerum, Lomentospora prolificans, Scedosporium apiospermum, Aspergillus flavus, Aspergillus fumigatus and two azole resistant A. fumigatus.
Biofilms were formed after a 90-min adhesion phase followed by the addition of RPMI medium and after a 48 h at 37 °C. Antifungals at different concentrations were added, either after the adhesion phase or after the 48 h of incubation to study their effect on the formation and on the preformed biofilm. After washing, a mixture of XTT-menadione was added to the wells. After 60 min at 37 °C, the OD (optical density) is measured at 450 and 630 nm. An optical microscope observation allows the visualization of elements of the biofilm.

[27] = strain from pleural fluid of an ICU patient, no mutations in cyp51A
[28] = two strains from a cystic fibrosis patient, TR34/L98H

CCC(C)n1ncn(-c2ccc(N3CCN(c4ccc(OCC5COC(Cn6cncn6)(c6ccc(Cl)cc6Cl)O5)cc4)CC3)cc2)c1=O (stereo not shown) [itraconazole]
Resistance [1]: 5%
MIC Range [2]: 0.125 to 1 mg/L
MIC [2]: 0.12 mg/L (≈ 0.17 µM)
median trough drug level [3]: 0.76 mg/L
susceptibility [4]: susceptible
in vitro susceptibility category [5]: resistance
Non-wild type isolates [6]: 29%
MIC [7]: 0.12 to 16 mg/L (≈ 0.17 to 22.7 µM)
change of MIC [8]: largely unchanged
reduction in MIC [8]: unchanged
MIC ([9]; Aspergillus fumigatus, Group II, 5 strains, direct inoculation method): 2 to 4 mg/L (≈ 2.83 to 5.67 µM)
MIC ([9]; Aspergillus fumigatus, Group II, the same 5 strains, EUCAST method): 0.5 to 1 mg/L (≈ 0.709 to 1.42 µM)
MIC [10]: 0.25 mg/L (≈ 0.354 µM)
MIC [11, 27]: > 8 mg/L
MIC [11, 28]: > 8 mg/L
MIC [12]: 0.11 mg/L (≈ 0.156 µM)
minimum inhibitory concentration (MIC), in words [13]: high values
MIC50 ([14]; 28 h): 0.5
MIC90 ([14]; 28 h): 0.5
MIC Range ([14]; 28 h, 29 strains): 0.5–8
MIC50 ([14]; 48 h): 0.5
MIC90 ([14]; 48 h): 1
MIC Range ([14]; 48 h): 0.5–16

OC(Cn1cncn1)(Cn1cncn1)c1ccc(F)cc1F [fluconazole]
I (intermediate) isolates, n (%) [15]: 0 (0%)
R (resistant) isolates, n (%) [15]: 2 (1.2%)
S (sensitive) isolates, n (%) [15]: 171 (98.8%)
I (intermediate) isolates, n (%) [16]: 3 (4.2%)
R (resistant) isolates, n (%) [16]: 12 (16.9%)
S (sensitive) isolates, n (%) [16]: 56 (78.9%)
isolates within the wildtype distribution range [17]: 92.5%
MIC Range [2]: 1 to 32 mg/L
MIC [2]: 5.26 mg/L (≈ 17.2 µM)
in vitro susceptibility category [5]: resistance
I (intermediate) isolates, n (%) [18]: 0 (0%)
R (resistant) isolates, n (%) [18]: 3 (1.5%)
S (sensitive) isolates, n (%) [18]: 199 (98.5%)
MIC [19]: 14.7 mg/L (≈ 47.9 µM)
Resistance ([7]; CDC tentative breakpoints): 100%
decrease in MIC [8]: 4 fold
MIC ([8]; Candidozyma auris, Isolate B (ERG11 Y132F, TAC1B A583S)): 128 mg/L (≈ 418 µM)
reduction in MIC [8]: 8 fold
I (intermediate) isolates, n (%) [20]: 0 (0%)
R (resistant) isolates, n (%) [20]: 0 (0%)
S (sensitive) isolates, n (%) [20]: 57 (100%)
isolates within the wildtype distribution range [21]: 96.8%
MIC ([22]; read-out: high MICs): 8 mg/L (≈ 26.1 µM)
MIC [12]: 4.66 mg/L (≈ 15.2 µM)
MIC Range [12]: 0.5 to 32 mg/L
minimum inhibitory concentration (MIC), in words [13]: high values
I (intermediate) isolates, n (%) [23]: 0 (0%)
R (resistant) isolates, n (%) [23]: 0 (0%)
S (sensitive) isolates, n (%) [23]: 25 (100%)
resistant isolates ([24]; […], discs 25 μg fluconazole, 1 μg voriconazole): 19%
MIC [25]: 128 mg/L (≈ 418 µM)

C[C@@H]1[C@H](O)[C@@H](C)/C=C/C=C/C=C/C=C/C=C/C=C/C=C/[C@H](O[C@@H]2O[C@H](C)[C@@H](O)[C@H](N)[C@@H]2O)C[C@@H]2O[C@](O)(C[C@@H](O)C[C@@H](O)[C@H](O)CC[C@@H](O)C[C@@H](O)CC(=O)O[C@H]1C)C[C@H](O)[C@H]2C(=O)O [amphotericin B]
I (intermediate) isolates, n (%) [15]: 1 (0.6)
S (sensitive) isolates, n (%) [15]: 169 (98.3%)
I (intermediate) isolates, n (%) [16]: 2 (2.8%)
S (sensitive) isolates, n (%) [16]: 69 (97.2%)
isolates within the wildtype distribution range [17]: 92.9%
MIC Range [2]: 0.125 to 2 mg/L
MIC [2]: 0.43 mg/L (≈ 0.465 µM)
susceptibility [4]: susceptible
I (intermediate) isolates, n (%) [18]: 4 (2%)
S (sensitive) isolates, n (%) [18]: 196 (97%)
MIC [7]: 0.12 to 2 mg/L (≈ 0.13 to 2.16 µM)
I (intermediate) isolates, n (%) [20]: 0 (0%)
S (sensitive) isolates, n (%) [20]: 57 (100%)
isolates within the wildtype distribution range [21]: 100%
MIC [10]: 2 mg/L (≈ 2.16 µM)
MIC ([22]; read-out: GM MIC): 0.9 mg/L (≈ 0.974 µM)
MIC [12]: 0.13 mg/L (≈ 0.141 µM)
MIC Range [12]: 0.03 to 2 mg/L
minimum inhibitory concentration (MIC), in words [13]: lower values
I (intermediate) isolates, n (%) [23]: 0 (0%)
S (sensitive) isolates, n (%) [23]: 26 (100%)
number of strains with 100% inhibition of biofilm formation [26]: two

C[C@@H](c1ncncc1F)[C@](O)(Cn1cncn1)c1ccc(F)cc1F [voriconazole]
I (intermediate) isolates, n (%) [15]: 1 (0.6%)
R (resistant) isolates, n (%) [15]: S 170 (98.8%) I 1 (0.6%) R 1 (0.6%)
S (sensitive) isolates, n (%) [15]: 170 (98.8%)
Resistance [1]: 9%
I (intermediate) isolates, n (%) [16]: 2 (2.8%)
R (resistant) isolates, n (%) [16]: S 62 (87.3%) I 2 (2.8%) R 7 (9.9%)
S (sensitive) isolates, n (%) [16]: 62 (87.3%)
median trough drug level [3]: 0.82 mg/L
susceptibility [4]: susceptible
I (intermediate) isolates, n (%) [18]: 0 (0%)
R (resistant) isolates, n (%) [18]: S 200 (99%) I 0 (0%) R 2 (1%)
S (sensitive) isolates, n (%) [18]: 200 (99%)
MIC [19]: 0.29 mg/L (≈ 0.83 µM)
Non-wild type isolates [6]: 29%
MIC [7]: 0.06 to 8 mg/L (≈ 0.172 to 22.9 µM)
reduction in MIC [8]: 2 fold
I (intermediate) isolates, n (%) [20]: 0 (0%)
R (resistant) isolates, n (%) [20]: S 57 (100%) I 0 (0%) R 0 (0%)
S (sensitive) isolates, n (%) [20]: 57 (100%)
MIC ([9]; Aspergillus fumigatus, Group I, one resistant isolate): 2 to 4 mg/L (≈ 5.73 to 11.5 µM)
MIC ([9]; Group III, one isolate, EUCAST methods): 2 mg/L (≈ 5.73 µM)
MIC ([9]; Group III, the same isolate, direct inoculation): 1 mg/L (≈ 2.86 µM)
MIC [10]: 0.25 mg/L (≈ 0.716 µM)
MIC ([22]; read-out: GM MIC): 0.075 mg/L (≈ 0.215 µM)
MIC [11, 27]: 1 mg/L (≈ 2.86 µM)
MIC [11, 28]: 4 mg/L (≈ 11.5 µM)
minimum inhibitory concentration (MIC), in words [13]: lower values
I (intermediate) isolates, n (%) [23]: 0 (0%)
R (resistant) isolates, n (%) [23]: S 26 (100%) I 0 (0%) R 0 (0%)
S (sensitive) isolates, n (%) [23]: 26 (100%)
resistant isolates [24]: 19%
number of strains with 100% inhibition of biofilm formation [26]: one
MIC50 ([14]; 28 h): 0.5
MIC90 ([14]; 28 h): 1
MIC Range ([14]; 28 h, 29 strains): 0.25–4
MIC50 ([14]; 48 h): 1
MIC90 ([14]; 48 h): 2
MIC Range ([14]; 48 h): 0.25–8
MIC [25]: 4 mg/L (≈ 11.5 µM)
